Experimental data: the supplement of paper PMC10307832

Experiments:
Test in all cases: relative viability (nuclei count vs DMSO), 5 days (fraction); higher = more cells survive
[1] = test system: NCI-H520
Procedure, shortened: (§1)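 For relative viability, nuclei counts in treated wells were divided by those in vehicle wells. Lung cancer cell lines had been pin-tool dosed in 1536-well plates the day after seeding and cultured for 5 days, then fixed and stained in one step (final 0.05% Triton X-100, 1% formaldehyde, 1 ug/ml Hoechst) and imaged at 4×. Doses were one drug alone or a fixed anchor-drug dose plus five library-drug doses (not always all listed) in √10 steps, and values are duplicate-plate medians.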

[2] = test system: HCC-78
Procedure, shortened: as §1

[3] = test system: RERF-LC-KJ
Procedure, shortened: as §1

[4] = test system: HCC-827
Procedure, shortened: as §1

[5] = test system: NCI-H1666
Procedure, shortened: as §1

[6] = test system: NCI-H647
Procedure, shortened: as §1

[7] = test system: NCI-H2087
Procedure, shortened: as §1

[8] = test system: COR-L 105
Procedure, shortened: as §1

[9] = test system: 201T
Procedure, shortened: as §1

[10] = test system: NCI-H322M
Procedure, shortened: as §1

[11] = test system: NCI-H1915
Procedure, shortened: as §1

[12] = test system: PC-14
Procedure, shortened: as §1

[13] = test system: NCI-H661
Procedure, shortened: as §1

[14] = test system: NCI-H23
Procedure, shortened: as §1

[15] = test system: ChaGo-K-1
Procedure, shortened: as §1

[16] = test system: NCI-H2347
Procedure, shortened: as §1

[17] = test system: H3255
Procedure, shortened: as §1

[18] = test system: NCI-H2405
Procedure, shortened: as §1

[19] = test system: LCLC-97TM1
Procedure, shortened: as §1

[20] = test system: NCI-H650
Procedure, shortened: as §1

[21] = test system: EPLC-272H
Procedure, shortened: as §1

[22] = test system: NCI-H2126
Procedure, shortened: as §1

[23] = test system: LC-2-ad
Procedure, shortened: as §1

Structure (SMILES): NC(=O)Nc1cc(-c2cccc(F)c2)sc1C(=O)N[C@H]1CCCNC1 [AZD7762] + Cc1nc(Nc2ncc(C(=O)Nc3c(C)cccc3Cl)s2)cc(N2CCN(CCO)CC2)n1 [Dasatinib] (partner 0.075 µM)
- relative viability ([1]; first compound 0.01 µM): 0.212
- relative viability ([1]; first compound 0.03162 µM): 0.18
- relative viability ([1]; first compound 0.1 µM): 0.192
- relative viability ([1]; first compound 0.3162 µM): 0.16
- relative viability ([1]; first compound 1 µM): 0.189
- relative viability ([2]; first compound 0.01 µM): 0.409
- relative viability ([2]; first compound 0.03162 µM): 0.606
- relative viability ([2]; first compound 0.1 µM): 0.451
- relative viability ([2]; first compound 0.3162 µM): 0.353
- relative viability ([2]; first compound 1 µM): 0.232
- relative viability ([3]; first compound 0.01 µM): 0.847
- relative viability ([3]; first compound 0.03162 µM): 0.896
- relative viability ([3]; first compound 0.1 µM): 0.858
- relative viability ([3]; first compound 0.3162 µM): 0.782
- relative viability ([3]; first compound 1 µM): 0.563
- relative viability ([4]; first compound 0.01 µM): 0.418
- relative viability ([4]; first compound 0.03162 µM): 0.335
- relative viability ([4]; first compound 0.1 µM): 0.302
- relative viability ([4]; first compound 0.3162 µM): 0.31
- relative viability ([4]; first compound 1 µM): 0.186
- relative viability ([5]; first compound 0.01 µM): 0.909
- relative viability ([5]; first compound 0.03162 µM): 0.88
- relative viability ([5]; first compound 0.1 µM): 0.838
- relative viability ([5]; first compound 0.3162 µM): 0.593
- relative viability ([5]; first compound 1 µM): 0.594
- relative viability ([6]; first compound 0.01 µM): 0.214
- relative viability ([6]; first compound 0.03162 µM): 0.184
- relative viability ([6]; first compound 0.1 µM): 0.197
- relative viability ([6]; first compound 0.3162 µM): 0.143
- relative viability ([6]; first compound 1 µM): 0.0925
- relative viability ([7]; first compound 0.01 µM): 0.887
- relative viability ([7]; first compound 0.03162 µM): 0.979
- relative viability ([7]; first compound 0.1 µM): 0.919
- relative viability ([7]; first compound 0.3162 µM): 0.773
- relative viability ([7]; first compound 1 µM): 0.517
- relative viability ([8]; first compound 0.01 µM): 0.324
- relative viability ([8]; first compound 0.03162 µM): 0.342
- relative viability ([8]; first compound 0.1 µM): 0.324
- relative viability ([8]; first compound 0.3162 µM): 0.251
- relative viability ([8]; first compound 1 µM): 0.239
- relative viability ([9]; first compound 0.01 µM): 0.592
- relative viability ([9]; first compound 0.03162 µM): 0.584
- relative viability ([9]; first compound 0.1 µM): 0.602
- relative viability ([9]; first compound 0.3162 µM): 0.567
- relative viability ([9]; first compound 1 µM): 0.473
- relative viability ([10]; first compound 0.01 µM): 0.258
- relative viability ([10]; first compound 0.03162 µM): 0.237
- relative viability ([10]; first compound 0.1 µM): 0.286
- relative viability ([10]; first compound 0.3162 µM): 0.279
- relative viability ([10]; first compound 1 µM): 0.256
- relative viability ([11]; first compound 0.01 µM): 0.32
- relative viability ([11]; first compound 0.03162 µM): 0.319
- relative viability ([11]; first compound 0.1 µM): 0.327
- relative viability ([11]; first compound 0.3162 µM): 0.335
- relative viability ([11]; first compound 1 µM): 0.272
- relative viability ([12]; first compound 0.01 µM): 0.281
- relative viability ([12]; first compound 0.03162 µM): 0.254
- relative viability ([12]; first compound 0.1 µM): 0.211
- relative viability ([12]; first compound 0.3162 µM): 0.0804
- relative viability ([12]; first compound 1 µM): 0.0213
- relative viability ([13]; first compound 0.01 µM): 0.753
- relative viability ([13]; first compound 0.03162 µM): 0.808
- relative viability ([13]; first compound 0.1 µM): 0.575
- relative viability ([13]; first compound 0.3162 µM): 0.468
- relative viability ([13]; first compound 1 µM): 0.296
- relative viability ([14]; first compound 0.01 µM): 0.961
- relative viability ([14]; first compound 0.03162 µM): 0.832
- relative viability ([14]; first compound 0.1 µM): 0.877
- relative viability ([14]; first compound 0.3162 µM): 0.567
- relative viability ([14]; first compound 1 µM): 0.313
- relative viability ([15]; first compound 0.01 µM): 0.572
- relative viability ([15]; first compound 0.03162 µM): 0.575
- relative viability ([15]; first compound 0.1 µM): 0.583
- relative viability ([15]; first compound 0.3162 µM): 0.487
- relative viability ([15]; first compound 1 µM): 0.583
- relative viability ([16]; first compound 0.01 µM): 0.36
- relative viability ([16]; first compound 0.03162 µM): 0.306
- relative viability ([16]; first compound 0.1 µM): 0.346
- relative viability ([16]; first compound 0.3162 µM): 0.35
- relative viability ([16]; first compound 1 µM): 0.253
- relative viability ([17]; first compound 0.01 µM): 0.347
- relative viability ([17]; first compound 0.03162 µM): 0.307
- relative viability ([17]; first compound 0.1 µM): 0.44
- relative viability ([17]; first compound 0.3162 µM): 0.352
- relative viability ([17]; first compound 1 µM): 0.319
- relative viability ([18]; first compound 0.01 µM): 0.234
- relative viability ([18]; first compound 0.03162 µM): 0.216
- relative viability ([18]; first compound 0.1 µM): 0.228
- relative viability ([18]; first compound 0.3162 µM): 0.157
- relative viability ([18]; first compound 1 µM): 0.177
- relative viability ([19]; first compound 0.01 µM): 0.913
- relative viability ([19]; first compound 0.03162 µM): 0.802
- relative viability ([19]; first compound 0.1 µM): 0.778
- relative viability ([19]; first compound 0.3162 µM): 0.572
- relative viability ([19]; first compound 1 µM): 0.447
- relative viability ([20]; first compound 0.01 µM): 0.455
- relative viability ([20]; first compound 0.03162 µM): 0.539
- relative viability ([20]; first compound 0.1 µM): 0.475
- relative viability ([20]; first compound 0.3162 µM): 0.505
- relative viability ([20]; first compound 1 µM): 0.412
- relative viability ([21]; first compound 0.01 µM): 0.338
- relative viability ([21]; first compound 0.03162 µM): 0.384
- relative viability ([21]; first compound 0.1 µM): 0.365
- relative viability ([21]; first compound 0.3162 µM): 0.3
- relative viability ([21]; first compound 1 µM): 0.0994
- relative viability ([22]; first compound 0.01 µM): 0.658
- relative viability ([22]; first compound 0.03162 µM): 0.665
- relative viability ([22]; first compound 0.1 µM): 0.639
- relative viability ([22]; first compound 0.3162 µM): 0.648
- relative viability ([22]; first compound 1 µM): 0.402
- relative viability ([23]; first compound 0.01 µM): 0.596
- relative viability ([23]; first compound 0.03162 µM): 0.513
- relative viability ([23]; first compound 0.1 µM): 0.374
- relative viability ([23]; first compound 0.3162 µM): 0.343
- relative viability ([23]; first compound 1 µM): 0.377
